Laboratory results taken from patent publication US9198902B2, “1,4-dihydropyridine-3,5-dicarboxylate derivatives and preparation and use thereof” (Xuanzhu Pharma Co., Ltd., priority 2011, dated 2015).
Counter-ions that a name gives are not always drawn.

Tests used:
[1] = system: T-type calcium ion channels; experiment: T-type calcium ion channel inhibition, whole cell patch-clamp (electrophysiological method); assay type: cell-based; conditions: cerebral cortex nerve cells of suckling mice, room temperature
Source text: (§1) 2. Test for L- and T-Type Calcium Ion Channel Inhibitors
(§2) This experiment was assigned to HD Biosciences Corporation (Shanghai) and conducted with an electrophysiological method.
It was done with reference to the method as disclosed by Jung-Ha Lee, et. al., “Identification of T-Type α1H Ca^2+ Channels (Cav3.2) in Major Pelvic Ganglion Neurons”.
(§3) Test samples were weighed accurately and diluted in a 3-fold stepwise dilution so that the final concentrations were as follows:
T-type test: Cerebral cortex nerve cells were separated from suckling mice, and used in the experiment after 7 days of cultivation. The ionic current of a single cell was recorded by applying the whole cell patch-clamp technique at room temperature, wherein the clamp current was −90 mV, and the pulse interval was 10 s. The inward current (the activiation was started from −20 mV) is the T-type calcium current (ICa,T).
(§4) The electrode inner liquid (mM): CsCl 120, TEA-Cl 20, CaCl2 1, EGTA-CsOH 11, Hepes 10, Mg-ATP 5, pH7.3;

Human Cav3.2 = Human Cav3.2 (Homo sapiens, UniProt O95180); experiment: T-type calcium ion channel inhibition, FLIPR method; assay type: cell-based; conditions: Human Cav3.2 in stable HEK-293 cells, FLIPR Calcium 4 No-Wash kit
Procedure: T-type tests for Compound 19 and Compound 20 were assigned to Chan Test Corporation, and conducted according to the FLIPR experimental procedure as follows.
It was done with reference to the method disclosed on page 48 of WO 2009/056934 A1.
Samples were weighed accurately and diluted in a 3-fold stepwise dilution so that the final concentrations were as follows: 100 μM, 30 μM, 10 μM, 3 μM, 1 μM, 0.3 μM, 0.1 μM, 0.03 μM, 0.01 μM, 0.003 μM.
T-type test: Human Cav3.2 was cloned in stable HEK-293 cells, and then the operation was conducted with FLIPR Calcium 4 No-Wash kit. The cell medium was removed. To an HEPES solution free of calcium ion was added 20 μL dye to dye for 30 minutes at a temperature of 37° C. This buffer free of calcium ion included NaCl, 137 mM; KCl, 0.5 mM; MgCl2 mM, 1 mM; HEPES, 10 mM; glucose, 10 mM. The pH value was adjusted to 7.4 with NaOH. After 30 minutes, the buffer was placed at room temperature for 30 minutes. Then 5 μL of compound to be tested, solvent or blank control were added. The compound was formulated with a buffer containing calcium ion, said buffer including KCl, 135 mM; CaCl2, 10.8 mM; MgCl2, 1 mM; HEPES, 10 mM; glucose, 10 mM. The collected fluorescence values were analyzed and the inhibition ratios were calculated.

SHRs = experiment: In vivo hypotensive activity in SHRs, DSI implant-type remote blood pressure measurement; parameters: species or system rats; conditions: male SHRs, 10 mg/kg po, monitored 24 hours
Procedure: The in vivo hypotensive activity assay was conducted according to DSI experimental procedure with reference to page 56 of WO 2009/056934 A1. The agents to be tested, lercanidipine, barnidipine, amlodipine, azelnidipine, efonidipine and manidipine, were accurately weighed. Each agent was dissolved in DMSO. To the resulting solution was added 50% of the corresponding volume of PEG400 so that the final concentration of each agent was 1 mg/ml, and the final concentration of DMSO was 3%. […] Each compound was dissolved in DMSO. […] The compound to be tested, Compound 15, was accurately weighed. This compound was dissolved in DMSO. […] The compound to be tested, Compound 16 (optical activity)+108.34° and Compound 17 (optical activity optical activity)+36.4°, were accurately weighed. […] The test for hypotensive effect: Male SHRs were subjected to an abdominal aorta implantation using an implant, and used in the test after 7-10 days of recovery. The administration was an intragastric administration. One hour before the administration, the measured blood pressure was used as the pre-administration basic blood pressure value. After the administration, SHRs, allowed free access to the diet, were continuously monitored with a DSI implant-type blood pressure remote measurement system for 24 hours.

[2] = biological target: L-type calcium ion channels (Cavia porcellus, UniProt O35505); experiment: L-type calcium ion channel inhibition, whole cell patch-clamp (electrophysiological method); assay type: cell-based; conditions: left ventricle muscle cells of guinea pigs, room temperature
Source text: as §1, §2
It was done with reference to the method as disclosed by Jung-Ha Lee, et. al., “Identification of T-Type α1H Ca^2+ Channels (Cav3.2) in Major Pelvic Ganglion Neurons”. J Neurophysiol 87:2844-2850, 2002.
as §3
L-type test: Left ventricle muscle cells were separated from guinea pigs. The cells were used in the experiment in eight hours. The ionic current of a single cell was recorded by applying the whole cell patch-clamp technique at room temperature, wherein the clamp current was −80 mV, and the pulse interval was 10 s. The inward current (the activiation was started from 0 mV) is the L-type calcium current (ICa,L).
as §4
The electrode outer liquid (mM): NaCl 135, CsCl 5.4, CaCl2 1.8, MgCl2 1, Hepes 5, glucose 10, pH7.4.

[3] = system: SHRs (spontaneous hypertensive rats); experiment: In vivo hypotensive activity in SHRs, tail-pinch method; conditions: male SHRs, 10 mg/kg po; for Max ΔMAP (mmHg ± SEM): measured 1-24 h after administration
Procedure: The in vivo hypotensive activity assay was conducted according to the tail-pinch method with reference to Folia pharmacol. Japon. 97, 115-126 (1991).
The agents to be tested, lercanidipine, barnidipine, amlodipine, azelnidipine, efonidipine and manidipine, were accurately weighed respectively. Each agent was dissolved in DMSO. To the resulting solution was added 50% of the corresponding volume of PEG400 so that the final concentration of each agent was 1 mg/ml, and the final concentration of DMSO was 3%.
The compounds to be tested, Compound 18, Compound 21, Compound 22, Compound 23, and Compound 26, were accurately weighed respectively. Each compound was dissolved in DMSO. To the resulting solution was added 50% of the corresponding volume of PEG400 so that the final concentration of each compound was 1 mg/ml, and the final concentration of DMSO was 3%.
The compounds to be tested, Compound 19 and Compound 20, were accurately weighed respectively. Each compound was suspended in 0.5% MC so that the final concentration of each compound was 1 mg/ml.
The test for hypotensive effect: Male SHRs (spontaneous hypertensive rats) were randomly allocated into a control group and an administration group. The administration was an intragastric administration. One hour before the administration, the measured blood pressure was used as the pre-administration basic blood pressure value. After the administration, the contractive pressure, the heart rate and the mean arterial pressure of SHRs at six time points, i.e. 1, 2, 4, 6, 8 and 24 hours after the administration, were measured with a Softron BP-98A non-invasive blood pressure instrument respectively.

Human Cav3.2, sequence (O95180 whole entry): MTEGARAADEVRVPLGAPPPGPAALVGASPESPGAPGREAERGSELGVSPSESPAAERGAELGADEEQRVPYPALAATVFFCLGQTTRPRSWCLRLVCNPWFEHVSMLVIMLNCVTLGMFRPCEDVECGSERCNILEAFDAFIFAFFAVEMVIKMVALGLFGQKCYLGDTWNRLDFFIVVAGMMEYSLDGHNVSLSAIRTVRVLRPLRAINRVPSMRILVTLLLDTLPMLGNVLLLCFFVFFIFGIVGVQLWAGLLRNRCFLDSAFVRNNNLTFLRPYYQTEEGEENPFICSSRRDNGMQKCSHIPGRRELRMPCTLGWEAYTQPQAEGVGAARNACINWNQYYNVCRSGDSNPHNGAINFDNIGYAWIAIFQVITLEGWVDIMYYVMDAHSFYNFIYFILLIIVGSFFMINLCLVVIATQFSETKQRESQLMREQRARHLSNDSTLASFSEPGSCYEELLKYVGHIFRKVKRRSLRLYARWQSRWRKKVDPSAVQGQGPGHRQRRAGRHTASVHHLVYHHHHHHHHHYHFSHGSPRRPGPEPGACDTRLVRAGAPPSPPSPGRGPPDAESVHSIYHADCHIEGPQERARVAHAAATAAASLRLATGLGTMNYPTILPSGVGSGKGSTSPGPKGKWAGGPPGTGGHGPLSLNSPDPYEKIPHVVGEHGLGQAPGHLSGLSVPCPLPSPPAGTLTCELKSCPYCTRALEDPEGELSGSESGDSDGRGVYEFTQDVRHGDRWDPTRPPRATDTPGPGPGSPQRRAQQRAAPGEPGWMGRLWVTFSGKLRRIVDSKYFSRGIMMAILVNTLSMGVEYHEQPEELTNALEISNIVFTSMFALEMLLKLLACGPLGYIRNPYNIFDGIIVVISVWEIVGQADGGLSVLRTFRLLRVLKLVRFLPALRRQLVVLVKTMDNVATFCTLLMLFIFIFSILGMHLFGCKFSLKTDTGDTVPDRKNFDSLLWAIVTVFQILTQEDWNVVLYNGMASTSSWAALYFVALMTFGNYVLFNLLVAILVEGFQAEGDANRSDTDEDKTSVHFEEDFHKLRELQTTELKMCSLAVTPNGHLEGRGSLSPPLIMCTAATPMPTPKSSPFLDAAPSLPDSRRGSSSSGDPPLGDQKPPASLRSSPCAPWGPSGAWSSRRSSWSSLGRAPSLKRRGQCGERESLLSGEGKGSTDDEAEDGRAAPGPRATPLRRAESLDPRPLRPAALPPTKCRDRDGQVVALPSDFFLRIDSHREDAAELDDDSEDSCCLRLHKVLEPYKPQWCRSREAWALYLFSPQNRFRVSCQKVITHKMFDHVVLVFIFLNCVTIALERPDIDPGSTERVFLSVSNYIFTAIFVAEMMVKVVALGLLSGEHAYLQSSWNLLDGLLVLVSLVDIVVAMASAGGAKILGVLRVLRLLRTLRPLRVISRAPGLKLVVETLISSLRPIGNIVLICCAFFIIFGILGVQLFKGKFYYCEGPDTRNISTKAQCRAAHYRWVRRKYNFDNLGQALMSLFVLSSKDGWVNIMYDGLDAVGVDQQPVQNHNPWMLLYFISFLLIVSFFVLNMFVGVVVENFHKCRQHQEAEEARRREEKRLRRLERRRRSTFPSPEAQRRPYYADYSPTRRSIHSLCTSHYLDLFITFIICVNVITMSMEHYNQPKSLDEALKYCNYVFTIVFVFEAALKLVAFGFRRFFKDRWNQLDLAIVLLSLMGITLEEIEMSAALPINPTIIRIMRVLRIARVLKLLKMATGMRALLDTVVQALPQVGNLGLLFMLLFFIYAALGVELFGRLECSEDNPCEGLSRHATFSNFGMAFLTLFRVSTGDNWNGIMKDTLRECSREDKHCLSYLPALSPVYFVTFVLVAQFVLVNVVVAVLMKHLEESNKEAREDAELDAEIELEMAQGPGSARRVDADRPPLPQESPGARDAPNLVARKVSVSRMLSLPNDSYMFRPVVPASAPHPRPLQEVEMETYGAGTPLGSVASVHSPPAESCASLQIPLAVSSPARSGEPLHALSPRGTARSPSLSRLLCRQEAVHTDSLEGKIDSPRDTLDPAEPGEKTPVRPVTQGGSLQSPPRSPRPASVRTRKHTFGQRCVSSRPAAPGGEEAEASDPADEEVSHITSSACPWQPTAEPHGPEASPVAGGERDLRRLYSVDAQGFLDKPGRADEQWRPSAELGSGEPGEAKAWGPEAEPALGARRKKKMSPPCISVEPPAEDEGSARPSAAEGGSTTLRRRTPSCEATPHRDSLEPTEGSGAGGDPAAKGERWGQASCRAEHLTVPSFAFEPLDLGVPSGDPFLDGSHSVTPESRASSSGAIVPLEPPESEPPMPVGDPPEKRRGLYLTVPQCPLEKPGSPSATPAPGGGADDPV
L-type calcium ion channels, sequence (O35505 whole entry): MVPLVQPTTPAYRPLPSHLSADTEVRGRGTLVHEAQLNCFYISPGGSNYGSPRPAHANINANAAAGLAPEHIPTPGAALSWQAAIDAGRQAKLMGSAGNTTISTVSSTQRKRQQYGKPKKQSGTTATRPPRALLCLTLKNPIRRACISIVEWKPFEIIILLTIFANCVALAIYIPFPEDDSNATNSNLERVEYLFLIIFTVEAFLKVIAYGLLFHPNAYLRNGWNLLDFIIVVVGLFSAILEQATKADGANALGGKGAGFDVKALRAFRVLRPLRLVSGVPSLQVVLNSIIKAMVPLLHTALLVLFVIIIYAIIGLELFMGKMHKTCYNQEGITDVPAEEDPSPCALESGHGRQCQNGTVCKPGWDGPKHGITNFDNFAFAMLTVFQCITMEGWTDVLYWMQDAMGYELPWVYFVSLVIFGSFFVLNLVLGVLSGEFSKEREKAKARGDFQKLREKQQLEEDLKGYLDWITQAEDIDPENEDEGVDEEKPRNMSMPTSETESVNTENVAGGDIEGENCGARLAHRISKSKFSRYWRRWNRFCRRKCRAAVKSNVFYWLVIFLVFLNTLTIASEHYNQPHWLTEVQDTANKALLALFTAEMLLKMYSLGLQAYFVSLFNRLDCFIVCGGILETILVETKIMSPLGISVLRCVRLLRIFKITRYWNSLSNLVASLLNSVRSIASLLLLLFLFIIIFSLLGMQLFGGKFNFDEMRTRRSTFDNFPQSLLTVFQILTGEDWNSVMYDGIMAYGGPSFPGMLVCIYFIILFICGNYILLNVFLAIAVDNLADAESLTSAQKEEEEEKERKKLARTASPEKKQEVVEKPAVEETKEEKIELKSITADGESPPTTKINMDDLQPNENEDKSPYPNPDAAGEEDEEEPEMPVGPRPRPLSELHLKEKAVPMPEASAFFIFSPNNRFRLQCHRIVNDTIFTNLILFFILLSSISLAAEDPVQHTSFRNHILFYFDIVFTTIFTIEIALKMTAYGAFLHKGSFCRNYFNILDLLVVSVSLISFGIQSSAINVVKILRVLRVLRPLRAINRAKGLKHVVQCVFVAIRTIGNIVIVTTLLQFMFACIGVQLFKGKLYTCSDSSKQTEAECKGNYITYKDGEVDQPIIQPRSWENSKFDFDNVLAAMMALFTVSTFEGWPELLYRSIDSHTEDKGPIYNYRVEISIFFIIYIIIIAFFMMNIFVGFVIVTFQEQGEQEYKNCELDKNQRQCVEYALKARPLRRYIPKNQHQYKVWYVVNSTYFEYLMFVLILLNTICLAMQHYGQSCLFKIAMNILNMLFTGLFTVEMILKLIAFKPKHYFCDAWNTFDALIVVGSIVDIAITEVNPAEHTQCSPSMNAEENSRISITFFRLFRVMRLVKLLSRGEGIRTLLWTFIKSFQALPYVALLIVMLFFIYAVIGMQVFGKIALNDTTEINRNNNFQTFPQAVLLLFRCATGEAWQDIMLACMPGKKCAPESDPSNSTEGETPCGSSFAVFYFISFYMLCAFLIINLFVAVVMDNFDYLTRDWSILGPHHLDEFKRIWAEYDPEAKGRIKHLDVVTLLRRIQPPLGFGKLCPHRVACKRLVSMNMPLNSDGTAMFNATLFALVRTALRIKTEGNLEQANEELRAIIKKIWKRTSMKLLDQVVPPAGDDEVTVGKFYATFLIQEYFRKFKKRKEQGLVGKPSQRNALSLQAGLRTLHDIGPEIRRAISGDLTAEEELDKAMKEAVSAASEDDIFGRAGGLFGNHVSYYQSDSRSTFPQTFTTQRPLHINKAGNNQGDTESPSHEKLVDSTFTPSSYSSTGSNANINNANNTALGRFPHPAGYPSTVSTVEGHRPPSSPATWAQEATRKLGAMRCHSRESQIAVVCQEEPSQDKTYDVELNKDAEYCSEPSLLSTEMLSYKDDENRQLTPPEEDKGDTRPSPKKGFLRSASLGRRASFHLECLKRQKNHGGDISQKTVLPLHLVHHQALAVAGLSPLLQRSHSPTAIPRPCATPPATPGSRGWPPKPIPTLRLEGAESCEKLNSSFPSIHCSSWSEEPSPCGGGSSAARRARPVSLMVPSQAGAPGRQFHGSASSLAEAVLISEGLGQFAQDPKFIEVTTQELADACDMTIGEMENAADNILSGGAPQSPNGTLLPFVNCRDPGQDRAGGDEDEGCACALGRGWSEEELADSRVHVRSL

Row | SMILES | IC50 [1] | IC50 (Human Cav3.2) | Max ΔMAP (mmHg ± SEM) (SHRs) | ΔMAP > 20 (mmHg) Duration time of action (SHRs) | IC50 [2] | ΔMAP > 20 (mmHg) Duration time of action [3] | Max ΔMAP (mmHg ± SEM) [3]
1 | COC(=O)C1=C(C)NC(C)=C(C(=O)OC2(C)CCN(Cc3ccccc3)C2)C1c1cccc([N+](=O)[O-])c1 (centres unmarked) [Compound 1 hydrochloride, 3-(1-benzyl-3-methylpyrrolidin-3-yl) 5-methyl 2,6-dimethyl-4-(3-nitrophenyl)-1,4-dihydropyridine-3,5-dicarboxylate] | 4.47 µM |  |  |  |  |  | 
2 | COC(=O)C1=C(C)NC(C)=C(C(=O)OC2(C)CCN(CCC(c3ccccc3)c3ccccc3)C2)C1c1cccc([N+](=O)[O-])c1 (centres unmarked) [Compound 2 hydrochloride, 3-[1-(3,3-diphenylpropyl)-3-methylpyrrolidin-3-yl]5-methyl 2,6-dimethyl-4-(3-nitrophenyl)-1,4-dihydropyridine-3,5-dicarboxylate] | 3.2 µM |  |  |  |  |  | 
3 | COC(=O)C1=C(C)NC(C)=C(C(=O)O[C@@]2(C)CCN(CCC(c3ccccc3)c3ccccc3)C2)[C@H]1c1cccc([N+](=O)[O-])c1 [Compound 16, (S)-3-[(S)-1-(3,3-diphenylpropyl)-3-methylpyrrolidin-3-yl] 5-methyl 2,6-dimethyl-4-(3-nitrophenyl)-1,4-dihydropyridine-3,5-dicarboxylate] | 2.28 µM | 1.95 µM | 57 ± 5 mmHg | 11 h | 0.59 µM |  | 
4 | CCOC(=O)C1=C(COCCN)NC(C)=C(C(=O)OC)C1c1ccccc1Cl (centres unmarked) [amlodipine, reference compound] |  | > 100 µM | 48 ± 13 mmHg | 16 h | 1.11 µM | 24 h | 74 ± 8 mmHg
5 | COC(=O)C1=C(C)NC(C)=C(C(=O)O[C@H]2CCN(Cc3ccccc3)C2)[C@H]1c1cccc([N+](=O)[O-])c1 [barnidipine, reference compound] | 8.15 µM | 30.8 µM | 60 ± 6 mmHg | 9 h | 0.58 µM | 14 h | 81 ± 10 mmHg
6 | COC(=O)C1=C(C)NC(C)=C(C(=O)OC(C)(C)CN(C)CCC(c2ccccc2)c2ccccc2)C1c1cccc([N+](=O)[O-])c1 (centres unmarked) [lercanidipine, reference compound] | > 10 µM |  | 54 ± 7 mmHg | 14 h | 0.84 µM | 23 h | 77 ± 15 mmHg
